Reference: PMC10175918 (Communications Biology, 2023)
Like-named read-outs stand apart in the source and are kept apart here.

Assays:
Experiment in all cases: TGFα-shedding assay-based GPCR screening with chimeric Gα subunit proteins
Type in all cases: cell-based
[1] = molecular target: T1, 348 GPCRs (Homo sapiens, UniProt Q01718)
T1 construct: expressed in transfected cells; host or cells: HEK293A

[2] = molecular target: 348 GPCRs (Homo sapiens, UniProt P28566); conditions: 5-HT1E (5-hydroxytryptamine receptor 1E); 10µM, Favipiravir 100μM
Sequence of 348 GPCRs (Homo sapiens, UniProt P28566) (P28566 whole entry): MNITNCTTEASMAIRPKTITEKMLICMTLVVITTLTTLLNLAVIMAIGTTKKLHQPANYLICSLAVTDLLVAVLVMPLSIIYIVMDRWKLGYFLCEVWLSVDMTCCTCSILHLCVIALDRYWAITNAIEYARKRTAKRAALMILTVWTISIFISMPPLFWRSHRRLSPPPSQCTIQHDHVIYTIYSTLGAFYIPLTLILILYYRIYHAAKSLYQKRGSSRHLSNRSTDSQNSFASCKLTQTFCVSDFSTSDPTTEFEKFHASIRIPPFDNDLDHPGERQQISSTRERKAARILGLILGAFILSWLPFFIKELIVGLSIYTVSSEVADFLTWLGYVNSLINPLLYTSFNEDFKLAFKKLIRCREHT

[3] = molecular target: T2, 348 GPCRs (Homo sapiens, UniProt P29371); conditions: 10µM, Favipiravir 100μM
T2 construct: expressed in transfected cells; host or cells: HEK293A
T2 sequence (P29371 1-465): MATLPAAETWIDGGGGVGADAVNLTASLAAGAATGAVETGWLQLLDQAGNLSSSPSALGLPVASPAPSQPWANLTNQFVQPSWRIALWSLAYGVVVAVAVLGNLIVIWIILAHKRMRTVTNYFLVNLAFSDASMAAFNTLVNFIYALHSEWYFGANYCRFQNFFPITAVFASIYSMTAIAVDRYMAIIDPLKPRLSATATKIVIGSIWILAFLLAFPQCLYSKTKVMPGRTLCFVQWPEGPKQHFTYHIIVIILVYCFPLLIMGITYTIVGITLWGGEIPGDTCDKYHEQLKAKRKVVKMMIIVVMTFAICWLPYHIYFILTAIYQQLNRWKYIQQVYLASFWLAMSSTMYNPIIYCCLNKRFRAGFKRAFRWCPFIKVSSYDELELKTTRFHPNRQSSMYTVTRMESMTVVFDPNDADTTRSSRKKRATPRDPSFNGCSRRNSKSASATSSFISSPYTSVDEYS

[4] = molecular target: T3, 348 GPCRs (Homo sapiens, UniProt Q9H1Y3); conditions: 10µM, Favipiravir 100μM
T3 construct: expressed in transfected cells; host or cells: HEK293A
T3 sequence (Q9H1Y3 whole entry): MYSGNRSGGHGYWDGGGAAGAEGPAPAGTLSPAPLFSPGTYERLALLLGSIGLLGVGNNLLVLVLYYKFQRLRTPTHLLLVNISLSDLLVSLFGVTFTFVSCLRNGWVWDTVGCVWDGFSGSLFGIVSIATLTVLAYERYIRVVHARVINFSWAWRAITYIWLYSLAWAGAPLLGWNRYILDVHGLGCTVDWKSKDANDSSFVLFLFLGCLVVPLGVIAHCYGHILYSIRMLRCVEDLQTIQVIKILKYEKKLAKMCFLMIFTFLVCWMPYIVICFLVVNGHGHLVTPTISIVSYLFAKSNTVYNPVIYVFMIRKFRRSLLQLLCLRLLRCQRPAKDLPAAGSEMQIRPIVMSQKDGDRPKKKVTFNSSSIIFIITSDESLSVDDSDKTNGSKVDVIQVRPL

[5] = molecular target: T4, 348 GPCRs (Homo sapiens, UniProt Q9H255); conditions: 10µM, Favipiravir 100μM
T4 construct: expressed in transfected cells; host or cells: HEK293A
T4 sequence (Q9H255 1-320): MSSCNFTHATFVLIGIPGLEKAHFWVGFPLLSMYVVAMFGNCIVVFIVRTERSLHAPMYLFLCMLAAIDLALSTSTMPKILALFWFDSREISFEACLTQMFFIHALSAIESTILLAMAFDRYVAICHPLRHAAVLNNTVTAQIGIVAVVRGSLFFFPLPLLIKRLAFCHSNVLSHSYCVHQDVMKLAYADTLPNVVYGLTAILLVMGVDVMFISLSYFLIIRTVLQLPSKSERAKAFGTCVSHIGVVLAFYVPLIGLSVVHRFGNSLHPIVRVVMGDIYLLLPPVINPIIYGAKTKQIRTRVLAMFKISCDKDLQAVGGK

[6] = molecular target: T5, 348 GPCRs (Homo sapiens, UniProt Q86SM5); conditions: 10µM, Favipiravir 100μM
T5 construct: expressed in transfected cells; host or cells: HEK293A
T5 sequence (Q86SM5 1-289): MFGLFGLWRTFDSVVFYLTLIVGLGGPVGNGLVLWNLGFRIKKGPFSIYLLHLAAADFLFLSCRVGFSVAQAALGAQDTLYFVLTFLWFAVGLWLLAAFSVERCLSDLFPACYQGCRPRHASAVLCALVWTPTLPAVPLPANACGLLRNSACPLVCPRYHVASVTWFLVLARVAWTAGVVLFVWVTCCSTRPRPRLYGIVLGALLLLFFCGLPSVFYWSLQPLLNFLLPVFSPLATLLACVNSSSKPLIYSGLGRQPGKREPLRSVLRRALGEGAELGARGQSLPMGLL

[7] = molecular target: T6, 348 GPCRs (Homo sapiens, UniProt Q8TDS7); conditions: 10µM, Favipiravir 100μM
T6 construct: expressed in transfected cells; host or cells: HEK293A
T6 sequence (Q8TDS7 whole entry): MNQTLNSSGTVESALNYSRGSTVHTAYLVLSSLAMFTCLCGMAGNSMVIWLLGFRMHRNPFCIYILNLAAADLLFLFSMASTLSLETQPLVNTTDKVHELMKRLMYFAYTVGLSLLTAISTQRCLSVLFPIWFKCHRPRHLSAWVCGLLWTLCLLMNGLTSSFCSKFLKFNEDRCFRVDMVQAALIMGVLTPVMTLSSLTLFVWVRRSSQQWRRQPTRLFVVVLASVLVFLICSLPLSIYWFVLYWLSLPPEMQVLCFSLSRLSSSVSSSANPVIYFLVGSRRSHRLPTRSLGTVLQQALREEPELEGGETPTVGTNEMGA

[8] = molecular target: T7, 348 GPCRs (Homo sapiens, UniProt Q9P1P5); conditions: 10µM, Favipiravir 100μM
T7 construct: expressed in transfected cells; host or cells: HEK293A
T7 sequence (Q9P1P5 1-351): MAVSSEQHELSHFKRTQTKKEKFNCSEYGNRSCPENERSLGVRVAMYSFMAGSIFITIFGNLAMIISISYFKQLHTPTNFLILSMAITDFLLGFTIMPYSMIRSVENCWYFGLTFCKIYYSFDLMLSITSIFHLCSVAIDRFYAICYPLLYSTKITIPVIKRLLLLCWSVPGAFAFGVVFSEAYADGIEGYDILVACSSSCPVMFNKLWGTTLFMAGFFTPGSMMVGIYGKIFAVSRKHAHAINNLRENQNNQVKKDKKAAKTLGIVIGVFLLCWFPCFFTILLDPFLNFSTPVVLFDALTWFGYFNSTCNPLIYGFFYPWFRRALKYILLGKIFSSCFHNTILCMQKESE

[9] = GPCR MC2R (melanocortin 2 receptor), read-out: % GPCR activation compared to TPA
[10] = NK3 (tachykinin receptor 3), read-out: % GPCR activation compared to TPA
[11] = OPN3 (opsin 3), read-out: % GPCR activation compared to TPA
[12] = OR51E2 (olfactory receptor, family 51, subfamily E, member 2), read-out: % GPCR activation compared to TPA
[13] = MRGPRG (MAS-related GPR, member G), read-out: % GPCR activation compared to TPA
[14] = MRGPRD (MAS-related GPR, member D), read-out: % GPCR activation compared to TPA
[15] = TAAR2 (trace amine associated receptor 2), read-out: % GPCR activation compared to TPA
[16] = read-out: % GPCR activation compared to TPA, GPCR MC2R (melanocortin 2 receptor)
[17] = read-out: % GPCR activation compared to TPA, NK3 (tachykinin receptor 3)
[18] = read-out: % GPCR activation compared to TPA, OPN3 (opsin 3)
[19] = read-out: % GPCR activation compared to TPA, OR51E2 (olfactory receptor, family 51, subfamily E, member 2)
[20] = read-out: % GPCR activation compared to TPA, MRGPRG (MAS-related GPR, member G)
[21] = read-out: % GPCR activation compared to TPA, MRGPRD (MAS-related GPR, member D)
[22] = read-out: % GPCR activation compared to TPA, TAAR2 (trace amine associated receptor 2)

T1 sequence (Q01718 whole entry): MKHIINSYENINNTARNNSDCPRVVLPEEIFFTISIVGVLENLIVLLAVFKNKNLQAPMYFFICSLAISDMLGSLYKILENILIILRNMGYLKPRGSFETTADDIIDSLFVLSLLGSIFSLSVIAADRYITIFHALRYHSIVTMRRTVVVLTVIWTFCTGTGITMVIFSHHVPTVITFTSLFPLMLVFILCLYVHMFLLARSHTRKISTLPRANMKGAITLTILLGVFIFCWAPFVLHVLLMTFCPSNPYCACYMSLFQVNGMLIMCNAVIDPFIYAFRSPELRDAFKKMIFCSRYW

SMILES | activation at 10 µM [1, 9] [%] | % GPCR activation compared to TPA [2] [%] | activation at 10 µM [3, 10] [%] | activation at 100 µM [4, 11] [%] | activation at 10 µM [5, 12] [%] | activation at 100 µM [6, 13] [%] | activation at 100 µM [7, 14] [%] | activation at 100 µM [8, 15] [%] | activation at 100 µM ([1]; GPCR MC2R (melanocortin 2 receptor), 100μM, read-out: % GPCR activation compared to TPA) [%] | activation at 10 µM [1, 16] [%] | activation at 10 µM [3, 17] [%] | activation at 100 µM [4, 18] [%] | activation at 10 µM [5, 19] [%] | activation at 100 µM [6, 20] [%] | activation at 100 µM [7, 21] [%] | activation at 100 µM [8, 22] [%]
CC(C)C(=O)OC[C@H]1O[C@@H](n2ccc(NO)nc2=O)[C@H](O)[C@@H]1O [molnupiravir] | -0.524 | -0.994 | -1.59 | -0.438 | -0.989 | -1.58 | -3.12 | -0.153 | – | – | – | – | – | – | – | –
CCC(CC)COC(=O)[C@H](C)N[P@](=O)(OC[C@H]1O[C@@](C#N)(c2ccc3c(N)ncnn23)[C@H](O)[C@@H]1O)Oc1ccccc1 [remdesivir] | – | -0.07183 | – | – | – | – | – | – | – | -1.06 | -0.179 | -0.473 | 0.358 | -0.00101 | 0.905 | 1.05
CC(C)OC(=O)[C@H](C)N[P@](=O)(OC[C@H]1O[C@@H](n2ccc(=O)[nH]c2=O)[C@](C)(F)[C@@H]1O)Oc1ccccc1 [sofosbuvir] | – | -1.207 | – | – | – | – | – | – | – | -3.14 | -1.94 | 0.266 | -1.75 | -0.28 | 4.12 | -0.403

Second part, led by results:

activation at 10 µM [1, 9] [%] | % GPCR activation compared to TPA [2] [%] | activation at 10 µM [3, 10] [%] | activation at 100 µM [4, 11] [%] | activation at 10 µM [5, 12] [%] | activation at 100 µM [6, 13] [%] | activation at 100 µM [7, 14] [%] | activation at 100 µM [8, 15] [%] | activation at 100 µM ([1]; GPCR MC2R (melanocortin 2 receptor), 100μM, read-out: % GPCR activation compared to TPA) [%] | SMILES | activation at 10 µM [1, 16] [%] | activation at 10 µM [3, 17] [%] | activation at 100 µM [4, 18] [%] | activation at 10 µM [5, 19] [%] | activation at 100 µM [6, 20] [%] | activation at 100 µM [7, 21] [%] | activation at 100 µM [8, 22] [%]
-0.688 | -1.385 | -0.811 | -0.281 | 0.751 | -1.34 | -4.53 | -1.42 | – | N#C[C@@]1(c2ccc3c(N)ncnn23)O[C@H](CO)[C@@H](O)[C@H]1O [GS441524] | – | – | – | – | – | – | –
– | 0.5554 | -0.777 | -0.343 | -0.415 | -0.36 | -0.473 | 0.753 | -0.849 | NC(=O)c1nc(F)cnc1O [favipiravir, 6-fluoro-3-hydroxy-2-pyrazinecarboxamide] | – | – | – | – | – | – | –
